Measurements: patent US12344878B2, “Artificial organelles for enzymatic cofactor reduction” (priority 2020, dated 2025)
Like-named read-outs stand apart in the source and are kept apart here.

Key:
[1] = target: T1, Respiratory Complex I (CMI, NADH:ubiquinone oxidoreductase) (Escherichia coli, UniProt P0AFC7+P0AFD4+P31979+P33599); experiment: Complex I proton pumping (ACMA quenching) in CMI proteoliposomes; format: biochemical, E. coli
T1 construct: made in house; host or cells: E. coli overexpression strain ANN0221
Protocol: (§1) Complex I NADH:DQ oxidoreductase and proton pumping activity were measured simultaneously using a Flexstation 3 (Molecular Devices, Inc.). NADH:DQ oxidoreductase activity was monitored through NADH oxidation by fluorescence spectroscopy (λexictation=340 nm, λemission=455 nm), while proton gradient generation was determined by quenching of ACMA (λexictation=410 nm, λemission=480 nm). The assay was conducted at 28° C. in the corresponding buffer, 25 μL of proteoliposomes were added to 175 μL assay mixture containing 100 μM DQ, 200 μM NADH, 0.2 μM valinomycin, 2.5 μM ACMA and for decoupling and inhibition assays 5 μM CCCP (carbonyl cyanide 3-chlorophenylhydrazone) and 50 μM Piericidin A, respectively. The sample was incubated for 5 min prior to reaction initiation by addition of NADH. When conducting inhibition assays proteoliposomes were incubated for 5 min with Piericidin A before the addition of DQ.

[2] = target: (+)CMI-(+)bR proteoliposomes (Escherichia coli, UniProt P0AFC7+P0AFD4+P31979+P33599); format: biochemical, E. coli (CMI), H. salinarum (bR)
Protocol: (§2) Photoreduction by CMI:PSII proteoliposomes were routinely performed at 28° C. in 5 mM MES, pH 6.5, 50 mM KCl, 5 mM MgCl2 2 mM CaCl2, 25 µL of proteoliposomes were added to 175 μL assay mixture containing 50 μM DQ, 0.2 μM valinomycin, 2.5 μM ACMA; and for decoupling and inhibition assays: 5 μM CCCP and 100 μM DCMU, respectively. The potassium ionophore, valinomycin, was added to collapse the electrical component of the PMF and generate a higher ΔpH. Without being bound by any theory, the reverse electron transfer activity of CMI is believed to be more dependent on the proton component of the […] than the electrical component of the […]. Saturating white light >2200 μmol photons m^−2 s^−1 was provided by a 100 W Mercury lamp. The light was passed through a 2 L water bath. The reaction was monitored using Flexstation 3 (Molecular Devices, Inc.), NADH concentration was monitored by fluorescence spectroscopy (λexictation=340 nm, λemission=455 nm), while the proton gradient generation was determined by the change in ACMA signal (λexictation=410 nm, λemission=480 nm).
(§3) Liposome preparation, enzyme reconstitution, NAD^+ photoreduction, and proton pumping assays were performed as described above.
In this study, an engineered artificial organelle capable of photoreduction of NAD^+ was created by vectorially integrating bR from H. salinarum and CMI from E. coli into proteoliposomes. The power source for this system is light which activates the proton translocation by bR. As a result, accumulation of H^+ within the lumen creates a proton motive force (PMF). The PMF is requisite to diminish the thermodynamic gap of the standard redox potentials between NADH/NAD^+ and QH2/Q. Reducing the thermodynamic barrier enables CMI to perform reverse electron transfer (RET) from QH2 to NAD^+ [10, 46].
The experiments were initially conducted to determine whether the (+)CMI-(+)bR proteoliposomes could reduce NAD^+ and find suitable assay conditions.

[3] = target: T2, Photosystem II (PSII) (Synechocystis sp., UniProt P09192+P16033); experiment: Oxygen evolution assay (Clarke-type electrode); format: biochemical, Synechocystis sp. PCC6803
T2 construct: made in house; host or cells: Synechocystis sp; PCC6803 strain with His-tagged CP47; thylakoid membranes
Protocol: Oxygen evolution assays were performed using 50 mM MES, pH 6.5, 10 mM NaCl, 5 mM MgCl2, 20 mM CaCl2 using a Clarke-type electrode (Hansatech Instruments, Ltd.). 2 mM ferricyanide and either 300 μM 2,5-dicholor-1,4-benzoquinone (DCBQ) or 50 μM DQ was added as electron acceptor with […] of ChlA of the sample to a final volume of 1.5 mL. The reaction took place at 28° C. and was initiated by red light at 2800 μmol s^−1 m^−2.

[4] = system: T3, CMI:PSII proteoliposomes; experiment: NAD+ photoreduction assay of CMI:PSII proteoliposomes (NADH fluorescence); format: biochemical, E. coli (CMI), Synechocystis sp. PCC6803 (PSII); settings: for Max Rate NAD^+ Photoreduction: 4PSII:1CMI proteoliposomes; for Sum NADH: production plus remaining
T3 construct: made in house; host or cells: CMI from E. coli strain ANN0221; PSII from Synechocystis sp; PCC6803 (His-tagged CP47); co-reconstituted in E. coli lipid liposomes
Protocol: as §2

[5] = system: T3, CMI:PSII proteoliposomes; experiment: Proton gradient (ACMA signal) of CMI:PSII proteoliposomes; format: biochemical, E. coli (CMI), Synechocystis sp. PCC6803 (PSII); settings: 100 μM DCMU
Protocol: as §2

[6] = target: T1, Respiratory Complex I (CMI, NADH:ubiquinone oxidoreductase); format: biochemical, E. coli
Protocol: as §1

[7] = target: T4, bacteriorhodopsin (bR) and CMI proteoliposomes (Escherichia coli, UniProt P0AFC7+P0AFD4+P31979+P33599); format: biochemical, H. salinarum (bR), E. coli (CMI); settings: 50 μM Piericidin A
T4 construct: Bacteriorhodopsin from H. salinarum was purified using tangential flow filtration; made in house; host or cells: bR purified from H. salinarum; CMI from E. coli strain ANN0221; co-reconstituted in liposomes
Protocol: as §3
(§4) The pH-sensitive fluorophore 9-amino-6-chloro-2-methoxyacridine (ACMA) was used to conduct proton pumping assays. The rates of ACMA quenching were measured for CMI bR independently. Because of the non-linear relationship between ACMA quenching and ΔpH [54-55], the rate of ACMA quenching and de-quenching were calculated using the linear region of the ACMA signal, between 40-70% of the baseline.

[8] = system: bacteriorhodopsin (bR) and CMI proteoliposomes; format: biochemical, H. salinarum (bR), E. coli (CMI); settings: 0.2 μM valinomycin compared with 0.1 μM
Protocol: as §3, §4

[9] = PSII reconstituted with detergent at 7 mM
[10] = CMI reconstituted with detergent at 7 mM
[11] = CMI reconstituted with detergent at 3.8 mM
[12] = CMI reconstituted with detergent at 18 mM
[13] = CMI reconstituted with detergent at 26 mM
[14] = CMI reconstituted with detergent at 1.8 mM

Molecule: N#CC(C#N)=NNc1cccc(Cl)c1 [CCCP, carbonyl cyanide 3-chlorophenylhydrazone]
- change in ACMA fluorescence of CMI proteoliposomes ([1]; incubation with 5 μM CCCP): minimal change in ACMA fluorescence
- response of NADH production [2]: negative and significant response

Molecule: C[C@H](CCC(=O)NCCC[N+](C)(C)CCCS(=O)(=O)[O-])[C@H]1CC[C@H]2[C@@H]3[C@H](O)C[C@@H]4C[C@H](O)CC[C@]4(C)[C@H]3C[C@H](O)[C@]12C [CHAPS, 3-[(3-cholamidopropyl)dimethylammonio]-1-propanesulfonate]
- O2 Evolution (mean ± S.D.) ([3]; PSII reconstituted with detergent at 3.0 mM): 178.08 ± 9.91 umol O2 hr^−1 ug ChIA
- O2 Evolution (mean ± S.D.) [3, 9]: 509.24 ± 256.84 umol O2 hr^−1 ug ChIA
- ACMA Fluorescence decrease ([1]; CMI reconstituted with detergent at 3.0 mM): 0.58%
- ACMA Fluorescence decrease [1, 10]: 74.54%

Molecule: CN(C)C(=O)Nc1ccc(Cl)c(Cl)c1 [DCMU, 3-(3,4-dicholorophenyl)-1,1-dimethylurea]
- inhibition of isolated PSII ([3]; 100 μM DCMU (FIG. 10)): 70%
- average rate of NADH production after removal of light ([4]; 100 μM DCMU inhibited sample): −170.65±2.26 nmol min^−1 mg CMI^−1
- rate of NADH production of inhibited sample relative to non-inhibited sample ([4]; 100 μM DCMU, illumination minus post illumination rates): 39.05%±7.64
- maximum rate of NADH production under illumination ([4]; proteoliposomes incubated 5 minutes with 100 μM DCMU): 6.44±24.97 nmol min^−1 mg CMI^−1
- ACMA signal increase relative to non-inhibited sample [5]: approximately 60%

Molecule: CCCCCCCCCCCCO[C@@H]1O[C@H](CO)[C@@H](O[C@H]2O[C@H](CO)[C@@H](O)[C@H](O)[C@H]2O)[C@H](O)[C@H]1O [DDM, n-dodecyl-β-D-maltopyranoside]
- NADH:DQ oxidoreductase activity [6, 11]: 13.43 umol min^−1 mg CMI^−1
- NADH:DQ oxidoreductase activity [6, 10]: 0.76 umol min^−1 mg CMI^−1
- O2 Evolution (mean ± S.D.) ([3]; PSII reconstituted with detergent at 3.8 mM): 565.87 ± 25.19 umol O2 hr^−1 ug ChIA
- O2 Evolution (mean ± S.D.) ([3]; PSII reconstituted with detergent at 6.8 mM): 396.55 ± 69.76 umol O2 hr^−1 ug ChIA
- ACMA Fluorescence decrease [1, 11]: 1.46%
- ACMA Fluorescence decrease [1, 10]: 0.32%

Molecule: NC(=O)C1=CN([C@@H]2O[C@H](COP(=O)(O)OP(=O)(O)OC[C@H]3O[C@@H](n4cnc5c(N)ncnc54)[C@H](O)[C@@H]3O)[C@@H](O)[C@H]2O)C=CC1 [NADH]
- Max Production of NADH ([4]; 100 μM NADH injected): 8.04 µM
- NADH remaining prior to photoreduction ([4]; 100 μM NADH injected): 2.05 µM
- Max Rate NAD^+ Photoreduction ([4]; 100 μM NADH injected): 132.30 nmol min^−1 mg CMI^−1
- Sum NADH ([4]; 100 μM NADH injected): 10.08 µM
- Max Production of NADH ([4]; 200 μM NADH injected): 9.10 µM
- NADH remaining prior to photoreduction ([4]; 200 μM NADH injected): 4.10 µM
- Max Rate NAD^+ Photoreduction ([4]; 200 μM NADH injected): 213.32 nmol min^−1 mg CMI^−1
- Sum NADH ([4]; 200 μM NADH injected): 13.20 µM
- Max Production of NADH ([4]; 300 μM NADH injected): 6.48 µM
- NADH remaining prior to photoreduction ([4]; 300 μM NADH injected): 8.19 µM
- Max Rate NAD^+ Photoreduction ([4]; 300 μM NADH injected): 178.71 nmol min^−1 mg CMI^−1
- Sum NADH ([4]; 300 μM NADH injected): 14.67 µM
- Max Production of NADH ([4]; 400 μM NADH injected): 1.53 µM
- NADH remaining prior to photoreduction ([4]; 400 μM NADH injected): 13.41 µM
- Max Rate NAD^+ Photoreduction ([4]; 400 μM NADH injected): 57.45 nmol min^−1 mg CMI^−1
- Sum NADH ([4]; 400 μM NADH injected): 14.94 µM

Molecule: CCCCCCCCO[C@@H]1O[C@H](CO)[C@@H](O)[C@H](O)[C@H]1O [OG, n-octyl-β-D-glucoside]
- NADH:DQ oxidoreductase activity [6, 12]: 5.24 umol min^−1 mg CMI^−1
- NADH:DQ oxidoreductase activity [6, 13]: 8.95 umol min^−1 mg CMI^−1
- O2 Evolution (mean ± S.D.) ([3]; PSII reconstituted with detergent at 18 mM): 306.95 ± 44.24 umol O2 hr^−1 ug ChIA
- O2 Evolution (mean ± S.D.) ([3]; PSII reconstituted with detergent at 26 mM): 481.01 ± 192.16 umol O2 hr^−1 ug ChIA
- ACMA Fluorescence decrease [1, 12]: 0.71%
- ACMA Fluorescence decrease [1, 13]: −0.16%

Molecule: C/C=C(\C)[C@H](O)[C@H](C)/C=C(C)/C=C/C/C(C)=C/Cc1nc(OC)c(OC)c(O)c1C [Piericidin A]
- inhibition of NADH:DQ oxidoreductase specific activity of CMI proteoliposomes ([6]; 50 μM Piericidin A): > 95%
- inhibition of NADH oxidation by CMI ([6]; 50 μM Piericidin A, (+)CMI-(−)bR proteoliposomes (FIG. 13)): > 95%
- effect on NAD^+ reductase rates ([2]; 50 μM Piericidin A): significantly increased
- NAD^+ reductase rate relative to samples with no Piericidin A ([2]; 50 μM Piericidin A, 0.0 mM DTT): ~3 times
- NAD^+ reductase rate relative to samples with no Piericidin A ([2]; 50 μM Piericidin A, 1.0 mM DTT): ~4 times
- reduction of the rate of NADH produced ([2]; after 35 minutes, Piericidin A present): 95%
- rate of ACMA signal increase during photoreduction ([7]; 0.0 mM DTT): 3.96±0.64 ACMA % min^−1
- rate of ACMA signal increase during photoreduction ([7]; 1.0 mM DTT): 3.15±0.94 ACMA % min^−1

Molecule: CC(C)[C@@H]1NC(=O)[C@H](C)OC(=O)[C@@H](C(C)C)NC(=O)[C@@H](C(C)C)OC(=O)[C@H](C(C)C)NC(=O)[C@H](C)OC(=O)[C@@H](C(C)C)NC(=O)[C@@H](C(C)C)OC(=O)[C@H](C(C)C)NC(=O)[C@H](C)OC(=O)[C@@H](C(C)C)NC(=O)[C@@H](C(C)C)OC1=O [valinomycin]
- ACMA quenching [8]: quenched the ACMA more than 0.1 μM

Molecule: polyethylene glycol p-(1,1,3,3-tetramethylbutyl)-phenyl ether [Triton X-100 ™]
- NADH:DQ oxidoreductase activity [6, 14]: −0.00 umol min^−1 mg CMI^−1
- NADH:DQ oxidoreductase activity [6, 10]: 9.05 umol min^−1 mg CMI^−1
- O2 Evolution (mean ± S.D.) ([3]; PSII reconstituted with detergent at 1.8 mM): 530.72 ± 2.53 umol O2 hr^−1 ug ChIA
- O2 Evolution (mean ± S.D.) [3, 9]: 218.69 ± 67.01 umol O2 hr^−1 ug ChIA
- ACMA Fluorescence decrease [1, 14]: −2.75%
- ACMA Fluorescence decrease [1, 10]: −4.90%
